Measured values: patent US9487502B2, “Chemical compounds” (Syngenta Limited, priority 2013, dated 2016)

What was measured:
Format in all cases: in vivo
Abutilon theophrasti [1] = experiment: Pre-emergence herbicidal activity, ABUTH; parameters: key: 5=total damage to plant; 0=no damage to plant; conditions: 1000 g/Ha, sprayed pre-emergence, evaluated after 13 days, scale 0-5
Protocol: (§1) Seeds of a variety of test species were sown in standard soil in pots. After cultivation for one day (pre-emergence) under controlled conditions in a glasshouse (at 24/16° C., day/night; 14 hours light; 65% humidity), the plants were sprayed with an aqueous spray solution derived from the formulation of the technical active ingredient in acetone/water (50:50) solution containing 0.5% Tween 20 (polyoxyethelyene sorbitan monolaurate, CAS RN 9005-64-5). The test plants were then grown in a glasshouse under controlled conditions (at 24/16° C., day/night; 14 hours light; 65% humidity) and watered twice daily. After 13 days, the test was evaluated (5=total damage to plant; 0=no damage to plant).

Alopecurus myosuroides [2] = experiment: Post-emergence herbicidal activity, ALOMY; parameters: key: 5=total damage to plant; 0=no damage to plant; conditions: 1000 g/Ha, sprayed post-emergence (8 days cultivation), evaluated after 13 days, scale 0-5
Protocol: (§2) Seeds of a variety of test species were sown in standard soil in pots. After 8 days cultivation (post-emergence) under controlled conditions in a glasshouse (at 24/16° C., day/night; 14 hours light; 65% humidity), the plants were sprayed with an aqueous spray solution derived from the formulation of the technical active ingredient in acetone/water (50:50) solution containing 0.5% Tween 20 (polyoxyethelyene sorbitan monolaurate, CAS RN 9005-64-5). The test plants were then grown in a glasshouse under controlled conditions (at 24/16° C., day/night; 14 hours light; 65% humidity) and watered twice daily. After 13 days, the test was evaluated (5=total damage to plant; 0=no damage to plant).

Zea mays [3] = experiment: Pre-emergence herbicidal activity, ZEAMX; parameters: key: 5=total damage to plant; 0=no damage to plant; conditions: 1000 g/Ha, sprayed pre-emergence, evaluated after 13 days, scale 0-5
Protocol: as §1

Echinochloa crus-galli [4] = experiment: Post-emergence herbicidal activity, ECHCG; parameters: key: 5=total damage to plant; 0=no damage to plant; conditions: 1000 g/Ha, sprayed post-emergence (8 days cultivation), evaluated after 13 days, scale 0-5
Protocol: as §2

Setaria faberi [5] = experiment: Post-emergence herbicidal activity, SETFA; parameters: key: 5=total damage to plant; 0=no damage to plant; conditions: 1000 g/Ha, sprayed post-emergence (8 days cultivation), evaluated after 13 days, scale 0-5
Protocol: as §2

Echinochloa crus-galli [6] = experiment: Pre-emergence herbicidal activity, ECHCG; parameters: key: 5=total damage to plant; 0=no damage to plant; conditions: 1000 g/Ha, sprayed pre-emergence, evaluated after 13 days, scale 0-5
Protocol: as §1

Alopecurus myosuroides [7] = experiment: Pre-emergence herbicidal activity, ALOMY; conditions: 1000 g/Ha, sprayed pre-emergence, evaluated after 13 days, scale 0-5
Protocol: as §1

Zea mays [8] = experiment: Post-emergence herbicidal activity, ZEAMX; parameters: key: 5=total damage to plant; 0=no damage to plant; conditions: 1000 g/Ha, sprayed post-emergence (8 days cultivation), evaluated after 13 days, scale 0-5
Protocol: as §2

Amaranthus retroflexus [9] = experiment: Post-emergence herbicidal activity, AMARE; parameters: key: 5=total damage to plant; 0=no damage to plant; conditions: 1000 g/Ha, sprayed post-emergence (8 days cultivation), evaluated after 13 days, scale 0-5
Protocol: as §2

Amaranthus retroflexus [10] = experiment: Pre-emergence herbicidal activity, AMARE; parameters: key: 5=total damage to plant; 0=no damage to plant; conditions: 1000 g/Ha, sprayed pre-emergence, evaluated after 13 days, scale 0-5
Protocol: as §1

Abutilon theophrasti [11] = experiment: Post-emergence herbicidal activity, ABUTH; parameters: key: 5=total damage to plant; 0=no damage to plant; conditions: 1000 g/Ha, sprayed post-emergence (8 days cultivation), evaluated after 13 days, scale 0-5
Protocol: as §2

Setaria faberi [12] = experiment: Pre-emergence herbicidal activity, SETFA; parameters: key: 5=total damage to plant; 0=no damage to plant; conditions: 1000 g/Ha, sprayed pre-emergence, evaluated after 13 days, scale 0-5
Protocol: as §1

Row | SMILES | ABUTH damage score, application pre-emergence (Abutilon theophrasti [1]) | ALOMY damage score, application post-emergence (Alopecurus myosuroides [2]) | ZEAMX damage score, application pre-emergence (Zea mays [3]) | ECHCG damage score, application post-emergence (Echinochloa crus-galli [4]) | SETFA damage score, application post-emergence (Setaria faberi [5]) | ECHCG damage score, application pre-emergence (Echinochloa crus-galli [6]) | ALOMY damage score, application pre-emergence (Alopecurus myosuroides [7]) | ZEAMX damage score, application post-emergence (Zea mays [8]) | AMARE damage score, application post-emergence (Amaranthus retroflexus [9]) | AMARE damage score, application pre-emergence (Amaranthus retroflexus [10]) | ABUTH damage score, application post-emergence (Abutilon theophrasti [11]) | SETFA damage score, application pre-emergence (Setaria faberi [12])
1 | CON1C(=O)N(c2cc(C(C)(C)F)ncn2)C(O)C1C (stereo not drawn) [Example A21] | 5 | 5 | 3 | 5 | 5 | 4 | 3 | 4 | 5 | 5 | 5 | 5
2 | CON1CC(O)N(c2cc(C(C)(C)C)ncn2)C1=O (stereo not drawn) [Example A23] | 5 | 1 | 1 | 4 | 5 | 4 | 1 | 4 | 4 | 5 | 5 | 2
3 | CC1NC(=O)N(c2cc(C(C)(C)C)ncn2)C1O (stereo not drawn) [Example A32] | 3 | 3 | 0 | 2 | 2 | 1 | 1 | 1 | 2 | 2 | 5 | 1
4 | CON1C(=O)N(c2cc(C(C)(C)C#N)ncn2)C(O)C1C (stereo not drawn) [Example A25] | 5 | 5 | 4 | 5 | 5 | 5 | 4 | 5 | 5 | 5 | 5 | 5
5 | CC1C(O)N(c2cc(C(C)(C)C#N)ncn2)C(=O)N1C (stereo not drawn) [Example A24] | 5 | 4 | 2 | 5 | 5 | 5 | 4 | 5 | 5 | 5 | 5 | 5
6 | CN1CC(O)N(c2cc(C(C)(C)F)ncn2)C1=O (stereo not drawn) [Example A22] | 5 | 5 | 4 | 5 | 5 | 5 | 4 | 5 | 5 | 5 | 5 | 5
7 | CN1C(=O)N(c2cc(C(C)(C)C)ncn2)C(O)C1O (stereo not drawn) [Example A4, 1-(6-tert-butylpyrimidin-4-yl)-4,5-dihydroxy-3-methyl-imidazolidin-2-one] | 4 | 4 | 0 | 2 | 4 | 2 | 2 | 1 | 5 | 5 | 4 | 2
8 | CC1C(O)N(c2cc(C(C)(C)C)ncn2)C(=O)N1C (stereo not drawn) [Example A3] | 5 | 5 | 2 | 5 | 5 | 4 | 4 | 3 | 5 | 5 | 5 | 5
9 | CCCOC1C(O)N(c2cc(C(C)(C)C)ncn2)C(=O)N1C (stereo not drawn) [Example A10] | 4 | 4 | 2 | 4 | 4 | 2 | 4 | 2 | 5 | 5 | 5 | 4
10 | CCOC1C(O)N(c2cc(C(C)(C)C)ncn2)C(=O)N1C (stereo not drawn) [Example A5, 1-(6-tert-butylpyrimidin-4-yl)-4-ethoxy-5-hydroxy-3-methyl-imidazolidin-2-one] | 5 | 5 | 2 | 5 | 5 | 5 | 4 | 4 | 5 | 5 | 5 | 5
